Results: PubChem BioAssay (NCI)
Where “and” joins values, the source holds several entries; their conditions need not be identical. Equal values may be shown once.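 Results reflect a 48-hour exposure of cells in 96-well plates to compound at five concentrations. GI50: concentration for 50% inhibition of growth. TGI marks complete inhibition of growth.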

Tests used:
Assay in all cases: DTP human tumour cell line panel, 48 h
SK-MEL-2 melanoma = tested on: SK-MEL-2 melanoma
HT29 colon = tested on: HT29 colon
K-562 leukemia = tested on: K-562 leukemia
SNB-19 CNS = tested on: SNB-19 CNS
NCI/ADR-RES ovarian = tested on: NCI/ADR-RES ovarian
TK-10 renal = tested on: TK-10 renal
OVCAR-4 ovarian = tested on: OVCAR-4 ovarian
A498 renal = tested on: A498 renal
COLO 205 colon = tested on: COLO 205 colon
HS 578T breast = tested on: HS 578T breast

Structure (SMILES) | GI50 (SK-MEL-2 melanoma) [µM] | TGI (SK-MEL-2 melanoma) | GI50 (HT29 colon) [µM] | TGI (HT29 colon) | GI50 (K-562 leukemia) [µM] | TGI (K-562 leukemia) | GI50 (SNB-19 CNS) [µM] | TGI (SNB-19 CNS) | GI50 (NCI/ADR-RES ovarian) [µM] | TGI (NCI/ADR-RES ovarian) [µM] | GI50 (TK-10 renal) | TGI (TK-10 renal) | GI50 (OVCAR-4 ovarian) [µM] | TGI (OVCAR-4 ovarian) | GI50 (A498 renal) [µM] | TGI (A498 renal) | GI50 (COLO 205 colon) [µM] | TGI (COLO 205 colon) | GI50 (HS 578T breast) [nM] | TGI (HS 578T breast) [µM]
CCCC[C@@H]1NC(=O)[C@H](CCCCN)NC(=O)[C@H](CCCNC(=N)N)NC(=O)[C@H](CC(C)C)NC(=O)[C@@H](NC(=O)[C@H](Cc2cccc(Cl)c2)NC(=O)[C@@H]2CCCN2C(=O)[C@@H](NC(C)=O)C(C)C)CCSSC[C@@H](C(=O)N[C@@H](CCCCN)C(=O)N2CCC[C@H]2C(=O)N2CCC[C@H]2C(=O)N[C@@H](CCC(=O)O)C(N)=O)NC(=O)[C@H](Cc2ccccc2)NC(=O)[C@H](CO)NC(=O)[C@H](C)NC(=O)[C@@H]2CCCN2C1=O | > 50 | > 50 µM | > 50 | > 50 µM | > 50 | > 50 µM | > 50 | > 50 µM | > 50 | > 50 | > 50 µM | > 50 µM | > 50 | > 50 µM | > 50 | > 50 µM | > 50 | > 50 µM | > 50000 | > 50
COc1cc(OC)c(-c2cc(=O)c3c(OC)c(OC)c(OC)c(OC)c3o2)cc1OC | – | > 100 µM | – | > 100 µM | – | > 100 µM | – | > 100 µM | – | > 100 | – | > 100 µM | – | > 100 µM | – | > 100 µM | – | > 100 µM | – | > 100
Cn1ncc2c(Nc3ccc(Br)cc3)nc(Nc3ccc(Br)cc3)nc21 | 2.89 | 8.56 µM | 2.03 | 4.32 µM | 1.59 | 4.3 µM | 6.42 | 18.9 µM | 3.64 | 16.1 | 4.75 µM | 19 µM | 3.51 | 16.1 µM | 2.68 | 9.9 µM | 1.65 | 3.2 µM | 2610 | 9.59
Cc1c(Cl)ccc2c1NC(=O)C2(O)CC(=O)c1ccc(Cl)cc1Cl (stereo not given) | – | > 50 µM | – | > 50 µM | – | > 50 µM | – | > 50 µM | – | > 50 | – | > 50 µM | – | > 50 µM | – | > 50 µM | – | > 50 µM | – | 48.9
O=C(CC12CC3CC(CC(C3)C1)C2)NCCOCCOCCNC(=O)c1cc2c(o1)C(=O)c1ccccc1C2=O | 1.6 | 3.86 µM | 2.38 | 5.85 µM | 1.33 | 4.9 µM | 0.841 | 3.11 µM | 2.07 | 5.87 | 3.06 µM | 5.27 µM | 0.839 | 2.08 µM | 1.6 | 3.16 µM | 1.28 | 2.76 µM | 1430 | 5.18
COc1ccc(OC)c(/C=C/[N+](=O)[O-])c1 | – | 5.48 µM and 9.88 µM | – | 6.33 µM and 7.41 µM | 2.08 | 6.96 µM and 14.8 µM | – | 15.2 µM and 9.89 µM | – | 21 | 1.86 µM and 5.04 µM | 4.58 µM and 10.5 µM | – | 8.89 µM and 8.72 µM | 3.26 | 8.42 µM and 8.29 µM | – | 4.06 µM and 6.76 µM | – | 14.6
O=C(NNc1nc2cc(F)ccc2n2c(CN3CCOCC3)ccc12)c1ccccc1 | 1.04 | 8.06 µM | 0.449 | 7.48 µM | 0.336 | 4.21 µM | 0.311 | 2.27 µM | 0.211 | 2.37 | 0.276 µM | 7.07 µM | 0.152 | 1.39 µM | 0.495 | 2.26 µM | 0.261 | 1.56 µM | 1510 | 8.05
COc1ccc(/C=C2/CN(C(=O)c3ccccc3F)C/C(=C\c3ccc(OC)cc3)C2=O)cc1 | 15.3 | 35.8 µM | 1.96 | 3.78 µM | 3.49 | > 100 µM | 6.21 | 20.7 µM | 3.49 | 82.5 | 4.95 µM | 17.7 µM | 6.02 | > 100 µM | 13.5 | 27.1 µM | 3.82 | 12.3 µM | 2540 | 8.31
CN(C(=O)c1ccc(F)cc1C(F)(F)F)C1CCN(c2nnc(-c3ccnn3C)c3ccccc23)CC1 | 29.9 | > 100 µM | 55.5 | > 100 µM | 27.3 | > 100 µM | 51.7 | > 100 µM | 30.9 | > 100 | 65.6 µM | > 100 µM | 20.9 | > 100 µM | 54.8 | > 100 µM | 32.9 | > 100 µM | 50800 | > 100
Cc1oc2ccccc2c(=O)c1Cn1nnc2ccccc21 | – | > 100 µM | – | > 100 µM | – | > 100 µM | – | > 100 µM | – | > 100 | – | > 100 µM | – | > 100 µM | – | > 100 µM | – | > 100 µM | – | > 100
Cc1nc2sc(C(=O)Nc3cccc4ccccc34)c(N)c2cc1C(C)O (stereo not given) | 0.219 | > 50 µM | 0.191 | 14.9 µM | 0.157 | > 50 µM | 0.244 | > 50 µM | 0.17 | – | 32.2 µM | > 50 µM | 1.51 | > 50 µM | 0.0756 | 1.02 µM | 0.234 | 7.64 µM | 121 | > 50
O=C(Cn1ccnc1[N+](=O)[O-])N(CCO)CCO | > 1250 | 250 µM and > 1250 µM | > 1250 | > 1250 µM | > 1250 | > 1250 µM | > 1250 | > 1250 µM | > 1250 | > 1250 | – | > 250 µM | > 1250 | > 1250 µM | > 250 | > 1250 µM | > 250 | > 1250 µM | – | > 250
CCOc1ccc(NC(=O)Nc2cc(C(C)C)ccc2C)cc1 | 18 | 55.6 µM | 32.8 | > 100 µM | 21.4 | > 100 µM | 10.4 | 39 µM | 6.96 | 44.7 | 2.21 µM | 6.61 µM | 3.33 | 11.5 µM | 3.65 | 18.6 µM | 15.3 | > 100 µM | 2320 | 7.06
C[C@@H]1O[C@@H](O[C@H]2C[C@@H](O)[C@]3(CO)C4C(CC[C@]3(O)C2)[C@@]2(O)CC[C@H](C3=CC(=O)OC3)[C@@]2(C)C[C@H]4O)[C@H](O)[C@H](O)[C@H]1O (stereo not given in full) | 0.0655 | 0.17 µM | 0.0248 | 0.0836 µM | 0.0323 | 0.162 µM | 0.0605 | 0.125 µM | 0.0154 | 0.0452 | 0.0148 µM | 0.0384 µM | 0.0116 | 0.0308 µM | 0.0387 | 0.262 µM | 0.0747 | 0.151 µM | 18.2 | 4.32
COc1cc2c(cc1OC)C13CCN4CC5=CCOC(CC(=O)O)C(C5CC41)C3N2 (stereo not given) | – | > 100 µM | – | > 100 µM | – | > 100 µM | – | > 100 µM | – | > 100 | – | > 100 µM | – | > 100 µM | – | > 100 µM | – | > 100 µM | – | > 100
O=C(c1ccccc1)c1ccc(-c2ccc(O)cc2)cc1 | 6.95 | 61 µM | 31.7 | > 100 µM | 2.92 | > 60.7 µM | 6.01 | > 100 µM | 5.18 | 54.9 | 8.43 µM | 50.7 µM | 5.87 | > 100 µM | 13 | > 58.9 µM | 19.4 | 45.9 µM | 17300 | > 53.3
Cn1ncc2cc(-c3cnc(N)c(Cl)c3N3CCC4(CCNC4=O)CC3)ccc21 | 39.8 | > 100 µM | 46.2 | > 100 µM | 45.5 | > 100 µM | 94.2 | > 100 µM | 32.8 | > 100 | 36.1 µM | > 100 µM | 38.9 | > 100 µM | 11.2 | 32.4 µM | 11.9 | > 100 µM | 19800 | 89.5
O=C1Nc2ccc(F)c3c(OCCO)cc(-c4ccc[nH]4)c1c23 | 1.4 | 6.51 µM | 1.99 | 9.95 µM | 5.28 | 25 µM | 3.66 | 14.9 µM | 4.01 | 20.1 | 1.41 µM | 6.42 µM | 1.44 | 12.1 µM | 0.896 | 4.24 µM | 1.33 | 5.79 µM | 1060 | 10.2
O=S(=O)(c1cccc(C(F)(F)F)c1)N1c2ccccc2-n2cccc2C1c1cccnc1 (stereo not given) | – | > 52.2 µM | – | > 58 µM | – | > 86.4 µM | – | > 72.9 µM | – | 66.2 | – | > 85.1 µM | – | > 48.4 µM | – | > 64 µM | – | > 54.6 µM | – | > 76.3
CN(C(=O)C1CCCCC1)c1ccccc1I(=O)=O | > 100 | > 100 µM | 33.8 | > 100 µM | 12.5 | 27.4 µM | 40.3 | > 100 µM | 35.9 | > 100 | 27.4 µM | > 100 µM | 33.2 | > 100 µM | 52.1 | > 100 µM | 14.6 | 29.8 µM | 52900 | > 100
